These results are taken from patent publication US11072598B2, “Somatostatin modulators and uses thereof” (CRINETICS PHARMACEUTICALS, INC., priority 2017, dated 2021).

For the test, the target named is T1, human somatostatin receptor subtype 2 (Homo sapiens, UniProt P30874).
T1 construct: expressed in transfected cells
Description: cAMP functional assay for SSTR2 agonists. Type of test: cell-based. Conditions: inhibition of cAMP activities via human SST2 receptor (SSTR2), CHO-K1 cells; read-out: EC50. The source says: General overview: All five SSTR subtypes are Gi coupled G-protein coupled receptors (GPCRs) that lead to decreases in intracellular cyclic AMP (cAMP) when activated by an agonist. Therefore, measurement of intracellular cAMP levels can be used to assess whether compounds of the invention are agonists of SSTR subtypes (John Kelly, Troy Stevens, W. Joseph Thompson, and Roland Seifert, Current Protocols in Pharmacology, 2005, 2.2.1-2.2). One example of an intracellular cAMP assay is described below. cAMP assay protocol:
Four days prior to the assay, 5,000 Chinese hamster ovary cells (CHO-K1, ATCC #CCL-61) stably expressing the human somatostatin receptor subtype 2 are plated in each well of a 96-well tissue culture-treated plate in Ham's F12 growth media (ThermoFisher #10-080-CM) supplemented with 10% donor bovine serum (Gemini Bio-Products #100-506), 100 U/mL penicillin; 100 ug/mL streptomycin; 2 mM L-glutamine (Gemini Bio-Products #400-110) and 0.2 mg/mL hygromycin B (GoldBio #31282-04-9). The cells are cultured at 37° C., 5% CO2 and 95% humidity. On the day of the assay, the media is aspirated and the cells are treated with 50 μL of 1.6 μM NKH477 (Sigma #N3290) plus various dilutions of compounds of the invention in assay buffer [1× Hank's Balanced Salt Solution (ThermoFisher #SH3058802), 0.5 mM HEPES pH 7.4, 0.1% bovine serum albumin, 0.2 mM 3-Isobutyl-1-methylxanthine (IBMX, VWR #200002-790)]. The cells are incubated for 20 minutes at 37° C. […] The cells are treated with 50 μL of lysis buffer (HRTF cAMP kit, Cisbio). The lysate is transferred to 384-well plates and cAMP detection and visualization antibodies are added and incubated for 1-24 hours at room temperature. The time-resolved fluorescent signal is read with a Tecan M1000Pro multiplate reader. The intracellular cAMP concentrations are calculated by regression to a standard curve and are plotted vs. the concentration of the compounds of the invention and the EC50 of the compounds are calculated using standard methods. All data manipluations are in GraphPad Prism v6.

In general, EC50 refers to the concentration at which the effect is half-maximal.

Bounds are passed on as bounds.

T1 sequence (P30874 whole entry): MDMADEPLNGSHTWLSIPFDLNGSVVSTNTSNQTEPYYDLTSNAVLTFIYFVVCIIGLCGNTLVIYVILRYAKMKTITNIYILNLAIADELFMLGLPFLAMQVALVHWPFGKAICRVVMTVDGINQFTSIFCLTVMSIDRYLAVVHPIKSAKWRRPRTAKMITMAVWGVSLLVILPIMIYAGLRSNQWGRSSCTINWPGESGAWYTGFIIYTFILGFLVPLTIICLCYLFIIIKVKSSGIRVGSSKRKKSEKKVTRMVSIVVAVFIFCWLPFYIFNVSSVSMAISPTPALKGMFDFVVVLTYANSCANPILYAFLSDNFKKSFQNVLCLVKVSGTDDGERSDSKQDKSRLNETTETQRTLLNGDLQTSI

With “4-(4-aminopiperidin-1-yl)-5-(3-fluoro-5-methylphenyl)-3-(7-methoxy-1H-1,3-benzodiazol-2-yl)pyridin-2-amine [Compound 1-13]”, the EC50 is under 0.01 µM.
In the case of “4-(4-aminopiperidin-1-yl)-5-(3-fluoro-5-methylphenyl)-3-{5-[(hydroxyimino)methyl]-1H-1,3-benzodiazol-2-yl}pyridin-2-amine [Compound 1-47]” it was under 0.01 µM.
Then `CO[C@@H]1CN(c2c(-c3cc(C)cc(F)c3)cnc(N)c2-c2nc3cc(Cl)ccc3[nH]2)CC[C@H]1N` (relative stereo) [Compound 1-7, 4-[trans-4-amino-3-methoxypiperidin-1-yl]-3-(5-chloro-1H-1,3-benzodiazol-2-yl)-5-(3-fluoro-5-methylphenyl)pyridin-2-amine], with under 0.01 µM; and `Cc1cc(C)cc(-c2cnc(N)c(-c3nc4cc(Cl)ccc4[nH]3)c2N2CC[C@@H](N)[C@H](C#N)C2)c1` (relative stereo) [Compound 1-41, trans-4-amino-1-[2-amino-3-(5-chloro-1H-1,3-benzodiazol-2-yl)-5-(3,5-dimethylphenyl)pyridin-4-yl]piperidine-3-carbonitrile], with under 0.01 µM.
In the case of `Cc1cc(F)cc(-c2cnc(N)c(-c3nc4cc(Cl)ccc4[nH]3)c2N2CC[C@@H](N)[C@H](C#N)C2)c1` (relative stereo) [Compound 1-42, trans-4-amino-1-[2-amino-3-(5-chloro-1H-1,3-benzodiazol-2-yl)-5-(3-fluoro-5-methylphenyl)pyridin-4-yl]piperidine-3-carbonitrile] it was under 0.01 µM; in that of `CO[C@@H]1CN(c2c(-c3cc(C)cc(F)c3)cnnc2-c2cc3ccc(Cl)cc3[nH]2)CC[C@H]1N` (relative stereo) [Compound 3-11, trans-1-[3-(6-chloro-1H-indol-2-yl)-5-(3-fluoro-5-methylphenyl)pyridazin-4-yl]-3-methoxypiperidin-4-amine], under 0.01 µM; in that of `C=Cn1c(-c2c(N)ncc(-c3cc(C)cc(F)c3)c2N2CCC(N)CC2)nc2cc(F)c(F)cc21` [Compound 1-4, 4-(4-aminopiperidin-1-yl)-3-(1-ethenyl-5,6-difluoro-1H-1,3-benzodiazol-2-yl)-5-(3-fluoro-5-methylphenyl)pyridin-2-amine], under 0.01 µM.
Consider `Cc1cc(F)cc(-c2cnc(N)c(-c3nc4cc(S(N)(=O)=O)ccc4[nH]3)c2N2CCC(N)CC2)c1` [Compound 1-9, 2-[2-amino-4-(4-aminopiperidin-1-yl)-5-(3-fluoro-5-methylphenyl)pyridin-3-yl]-1H-1,3-benzodiazole-5-sulfonamide], for which the EC50 is under 0.01 µM.
As for `Cc1cc(F)cc(-c2cnc(N)c(-c3nc4ccc(F)c(F)c4[nH]3)c2N2CCC(N)CC2)c1` [Compound 1-15, 4-(4-aminopiperidin-1-yl)-3-(6,7-difluoro-1H-1,3-benzodiazol-2-yl)-5-(3-fluoro-5-methylphenyl)pyridin-2-amineine], the EC50 was under 0.01 µM.
In the case of `Cc1cc(F)cc(-c2cnc(N)c(-c3nc4cc(OC5COC5)ccc4[nH]3)c2N2CCC(N)CC2)c1` [Compound 1-16, 4-(4-aminopiperidin-1-yl)-5-(3-fluoro-5-methylphenyl)-3-[5-(oxetan-3-yloxy)-1H-1,3-benzodiazol-2-yl]pyridin-2-amine] it was under 0.01 µM; in that of `CONC(=O)c1cccc2nc(-c3c(N)ncc(-c4cc(C)cc(F)c4)c3N3CCC(N)CC3)[nH]c12` [Compound 1-17, 2-[2-amino-4-(4-aminopiperidin-1-yl)-5-(3-fluoro-5-methylphenyl)pyridin-3-yl]-N-methoxy-1H-1,3-benzodiazole-7-carboxamide], 0.01 to 0.1 µM.
In the case of `CON(C)C(=O)c1cccc2nc(-c3c(N)ncc(-c4cc(C)cc(F)c4)c3N3CCC(N)CC3)[nH]c12` [Compound 1-18, 2-[2-amino-4-(4-aminopiperidin-1-yl)-5-(3-fluoro-5-methylphenyl)pyridin-3-yl]-N-methoxy-N-methyl-1H-1,3-benzodiazole-7-carboxamide], the EC50 lay within 0.01 to 0.1 µM.
In the case of `Cc1cc(F)cc(-c2cnc(N)c(-c3nc4cc(OC5CCC5)ccc4[nH]3)c2N2CCC(N)CC2)c1` [Compound 1-19, 4-(4-aminopiperidin-1-yl)-3-(5-cyclobutoxy-1H-1,3-benzodiazol-2-yl)-5-(3-fluoro-5-methylphenyl)pyridin-2-amine] it was under 0.01 µM; in that of `Cc1cc(F)cc(-c2cnc(N)c(-c3nc4cc(OC5CC5)ccc4[nH]3)c2N2CCC(N)CC2)c1` [Compound 1-20, 4-(4-aminopiperidin-1-yl)-3-(5-cyclopropoxy-1H-1,3-benzodiazol-2-yl)-5-(3-fluoro-5-methylphenyl)pyridin-2-amine], under 0.01 µM; in that of `Cc1cc(F)cc(-c2cnc(N)c(-c3nc4cccc(C#N)c4[nH]3)c2N2CCC(N)CC2)c1` [Compound 1-21, 2-[2-amino-4-(4-aminopiperidin-1-yl)-5-(3-fluoro-5-methylphenyl)pyridin-3-yl]-1H-1,3-benzodiazole-7-carbonitrile], under 0.01 µM.
Then `Cc1cc(F)cc(-c2cnc(N)c(-c3nc4cccc(C=NO)c4[nH]3)c2N2CCC(N)CC2)c1` [Compound 1-22, 4-(4-aminopiperidin-1-yl)-5-(3-fluoro-5-methylphenyl)-3-{7-[(hydroxyimino)methyl]-1H-1,3-benzodiazol-2-yl]pyridin-2-amine], with under 0.01 µM; and `CONC(=O)c1ccc2[nH]c(-c3c(N)ncc(-c4cc(C)cc(F)c4)c3N3CCC(N)CC3)nc2c1` [Compound 1-23, 2-[2-amino-4-(4-aminopiperidin-1-yl)-5-(3-fluoro-5-methylphenyl)pyridin-3-yl]-N-methoxy-1H-1,3-benzodiazole-5-carboxamide], with 0.01 to 0.1 µM; and `CON(C)C(=O)c1ccc2[nH]c(-c3c(N)ncc(-c4cc(C)cc(F)c4)c3N3CCC(N)CC3)nc2c1` [Compound 1-24, 2-[2-amino-4-(4-aminopiperidin-1-yl)-5-(3-fluoro-5-methylphenyl)pyridin-3-yl]-N-methoxy-N-methyl-1H-1,3-benzodiazole-5-carboxamide], with under 0.01 µM.
With `Cc1cc(C#N)cc(-c2cnc(N)c(-c3nc4cc(Cl)ccc4[nH]3)c2N2CCC(N)CC2)c1` [Compound 1-25, 3-[6-amino-4-(4-aminopiperidin-1-yl)-5-(5-chloro-1H-1,3-benzodiazol-2-yl)pyridin-3-yl]-5-methylbenzonitrile], the EC50 is under 0.01 µM.
Turning to `Cc1cc(F)cc(-c2cnc(N)c(-c3nc4cc(N5CC(F)C5)ccc4[nH]3)c2N2CCC(N)CC2)c1` [Compound 1-26, 4-(4-aminopiperidin-1-yl)-5-(3-fluoro-5-methylphenyl)-3-[5-(3-fluoroazetidin-1-yl)-1H-1,3-benzodiazol-2-yl]pyridin-2-amine], the concentration for a half-maximal effect (EC50) is under 0.01 µM.
In the case of `COC(=O)Nc1cccc2nc(-c3c(N)ncc(-c4cc(C)cc(F)c4)c3N3CCC(N)CC3)[nH]c12` [Compound 1-27, methyl N-{2-[2-amino-4-(4-aminopiperidin-1-yl)-5-(3-fluoro-5-methylphenyl)pyridin-3-yl]-1H-1,3-benzodiazol-7-yl}carbamate] it was under 0.01 µM.
In the case of `Cc1cc(F)cc(-c2cnc(N)c(-c3nc4ccc(Cl)cc4n3C)c2N2CCC(N)CC2)c1` [Compound 1-29, 4-(4-aminopiperidin-1-yl)-3-(6-chloro-1-methyl-1H-1,3-benzodiazol-2-yl)-5-(3-fluoro-5-methylphenyl)pyridin-2-amine] it was under 0.01 µM.
For `Cc1cc(F)cc(-c2cnc(N)c(-c3nc4cc5c(cc4[nH]3)OC(F)(F)O5)c2N2CCC(N)CC2)c1` [Compound 1-31, 4-(4-aminopiperidin-1-yl)-3-{5,5-difluoro-4,6-dioxa-10,12-diazatricyclo[7.3.0.0^3,7]dodeca-1,3 (7),8,10-tetraen-11-yl}-5-(3-fluoro-5-methylphenyl)pyridin-2-amine], the EC50 was under 0.01 µM.
Then `N#Cc1cc(F)cc(-c2cnc(N)c(-c3nc4cc(Cl)ccc4[nH]3)c2N2CCC(N)CC2)c1` [Compound 1-32, 3-[6-amino-4-(4-aminopiperidin-1-yl)-5-(5-chloro-1H-1,3-benzodiazol-2-yl)pyridin-3-yl]-5-fluorobenzonitrile], with under 0.01 µM; and `Cc1cc(F)cc(-c2cnc(N)c(-c3cc4ccc(C#N)cc4[nH]3)c2N2CCC(N)CC2)c1` [Compound 1-33, 2-[2-amino-4-(4-aminopiperidin-1-yl)-5-(3-fluoro-5-methylphenyl)pyridin-3-yl]-1H-indole-6-carbonitrile], with under 0.01 µM.
Then `Cc1cc(F)cc(-c2cnc(N)c(C=NOC(C)C)c2N2CCC(N)CC2)c1` [Compound 1-34], with under 0.01 µM.
Then `Cc1cc(F)cc(-c2cnc(N)c(C=NOC(C)(C)C)c2N2CCC(N)CC2)c1` [Compound 1-35], with under 0.01 µM.
